Experimental data from ChEMBL document CHEMBL4431377, “Design, Synthesis, and Characterization of Sulfamide and Sulfamate Nucleotidomimetic Inhibitors of hHint1” (ACS Med Chem Lett, 2016).
pIC50, pKd: −log10 of the molar value.

Tests used:
[1] = target: T1, Adenosine 5'-monophosphoramidase HINT1 (Homo sapiens, UniProt P49773); assay: Binding affinity to His-tagged human full length HINT1 expressed in Rosetta2 pLysS cells by isothermal titration calorimetric assay
[2] = Aqueous solubility of the compound in aqueous buffer at 5 mM; type: physicochemical; settings: 5000 µM
[3] = Stability of the compound in PBS buffer assessed as cyclonucleoside formation at 50 to 100 uM by HPLC analysis; type: physicochemical
[4] = Aqueous solubility of the compound in aqueous buffer at 20 mM; type: physicochemical; settings: 20000 µM
[5] = target: T1, Adenosine 5'-monophosphoramidase HINT1; assay: Inhibition of His-tagged human full length HINT1 expressed in Rosetta2 pLysS cells using TrpAMP as substrate measured for 2 to 30 mins by fluorescence assay
[6] = target: T1, Adenosine 5'-monophosphoramidase HINT1; assay: Binding affinity to recombinant human HINT1 by isothermal titration calorimetric assay

T1 sequence (P49773 whole entry): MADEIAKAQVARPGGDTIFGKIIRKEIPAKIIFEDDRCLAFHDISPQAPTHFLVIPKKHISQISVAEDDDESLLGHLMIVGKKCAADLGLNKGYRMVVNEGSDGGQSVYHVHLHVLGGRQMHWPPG

| pKd [1] | solubility [2] | pIC50 [5] | inhibition [5] | Structure (SMILES) | also measured |
| --- | --- | --- | --- | --- | --- |
| 6.09 | Soluble | – | – | CCN(CC)CC.Nc1nc2c(ncn2[C@@H]2O[C@H](COS(=O)(=O)NC(=O)CCc3c[nH]c4ccccc34)[C@@H](O)[C@H]2O)c(=O)[nH]1 | – |
| 6.04 | Soluble | – | – | CCN(CC)CC.Nc1nc2c(ncn2[C@@H]2O[C@H](CNS(=O)(=O)NC(=O)CCc3c[nH]c4ccccc34)[C@@H](O)[C@H]2O)c(=O)[nH]1 | – |
| 5.54 | Soluble | – | – | CCCC(=O)NS(=O)(=O)OC[C@H]1O[C@@H](n2cnc3c(=O)[nH]c(N)nc32)[C@H](O)[C@@H]1O.CCN(CC)CC | – |
| – | – | – | – | CCN(CC)CC.O=C(CCc1c[nH]c2ccccc12)NS(=O)(=O)OC[C@H]1O[C@@H](n2cnc3c2ncn2ccnc32)[C@H](O)[C@@H]1O | Stability [3]: Stable; solubility [4]: Soluble |
| 6.49 | – | 6.00 | Dose-dependent effect | Nc1ncnc2c1ncn2[C@@H]1O[C@H](CNS(=O)(=O)NC(=O)CCCC[C@@H]2SC[C@@H]3NC(=O)N[C@@H]32)[C@@H](O)[C@H]1O | – |
| – | – | 4.59 | Dose-dependent effect | Nc1nc2c(ncn2[C@@H]2O[C@H](COC(=O)NCCc3c[nH]c4ccccc34)[C@@H](O)[C@H]2O)c(=O)[nH]1 | pKd [6]: 5.44 |
